Reference: patent US9492471B2, “Methods of treating a disease or disorder associated with Bruton'S Tyrosine Kinase” (Celgene Avilomics Research, Inc., priority 2013, dated 2016)
Like-named read-outs stand apart in the source and are kept apart here.

How the values were obtained:
Experiment in all cases: HotSpot kinase profiling
Assay type in all cases: biochemical
DYRK1/DYRK1A = target: T1, DYRK1/DYRK1A (Homo sapiens, UniProt Q13627)
T1 construct: purchased Reaction Biology Corp

LATS2 = target: T2, LATS2 (Homo sapiens, UniProt Q9NRM7)
T2 construct: purchased Reaction Biology Corp
T2 sequence (Q9NRM7 1-1088): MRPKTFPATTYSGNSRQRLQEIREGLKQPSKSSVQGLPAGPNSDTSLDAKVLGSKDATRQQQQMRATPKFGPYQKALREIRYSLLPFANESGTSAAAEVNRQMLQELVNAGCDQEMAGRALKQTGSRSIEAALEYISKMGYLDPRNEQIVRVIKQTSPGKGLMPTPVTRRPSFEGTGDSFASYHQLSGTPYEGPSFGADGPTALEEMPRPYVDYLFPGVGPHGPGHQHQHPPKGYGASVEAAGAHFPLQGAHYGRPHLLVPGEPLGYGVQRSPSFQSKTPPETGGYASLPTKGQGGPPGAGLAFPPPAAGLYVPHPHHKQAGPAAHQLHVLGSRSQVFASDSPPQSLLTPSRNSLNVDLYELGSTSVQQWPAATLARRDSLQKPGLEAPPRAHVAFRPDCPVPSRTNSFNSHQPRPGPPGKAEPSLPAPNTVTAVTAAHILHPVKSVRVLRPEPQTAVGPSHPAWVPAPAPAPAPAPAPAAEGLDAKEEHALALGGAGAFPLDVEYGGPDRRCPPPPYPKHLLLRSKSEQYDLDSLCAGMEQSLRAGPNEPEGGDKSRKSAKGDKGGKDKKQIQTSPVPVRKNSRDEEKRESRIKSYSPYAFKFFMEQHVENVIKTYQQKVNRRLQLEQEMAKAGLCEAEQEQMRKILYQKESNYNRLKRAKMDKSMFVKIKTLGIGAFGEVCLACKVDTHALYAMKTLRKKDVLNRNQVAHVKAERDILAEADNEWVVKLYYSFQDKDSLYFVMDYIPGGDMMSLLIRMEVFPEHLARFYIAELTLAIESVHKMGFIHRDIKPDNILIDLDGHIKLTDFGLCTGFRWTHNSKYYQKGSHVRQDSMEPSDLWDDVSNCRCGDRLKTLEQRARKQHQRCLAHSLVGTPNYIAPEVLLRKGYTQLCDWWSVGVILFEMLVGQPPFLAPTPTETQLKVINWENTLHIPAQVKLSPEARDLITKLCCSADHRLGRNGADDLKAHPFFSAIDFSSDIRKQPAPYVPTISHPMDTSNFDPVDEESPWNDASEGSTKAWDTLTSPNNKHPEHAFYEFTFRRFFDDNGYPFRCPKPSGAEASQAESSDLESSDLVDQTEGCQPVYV
In short: (§1)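 Percent inhibition, averaged when run more than once and referenced to a DMSO negative control, came from a radioactive filter-binding readout on P81 paper. Reactions of kinase with freshly made substrate and cofactors ran for 2 h at room temperature.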

PHKg2 = target: T3, PHKg2 (Homo sapiens, UniProt P15735)
T3 construct: purchased Reaction Biology Corp
T3 sequence (P15735 1-406): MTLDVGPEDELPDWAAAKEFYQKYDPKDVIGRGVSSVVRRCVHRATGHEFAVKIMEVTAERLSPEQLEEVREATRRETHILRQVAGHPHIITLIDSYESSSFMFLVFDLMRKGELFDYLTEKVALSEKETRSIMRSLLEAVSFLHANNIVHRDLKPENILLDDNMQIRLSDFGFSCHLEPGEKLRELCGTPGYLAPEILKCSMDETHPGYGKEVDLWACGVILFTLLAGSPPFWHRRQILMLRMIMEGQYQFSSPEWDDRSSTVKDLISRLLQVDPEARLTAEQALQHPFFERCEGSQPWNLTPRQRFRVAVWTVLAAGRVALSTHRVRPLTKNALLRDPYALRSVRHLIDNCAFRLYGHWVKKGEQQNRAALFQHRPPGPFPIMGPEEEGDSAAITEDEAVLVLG
In short: as §1

PKCg = target: T4, PKCg (Homo sapiens, UniProt P05129)
T4 construct: purchased Reaction Biology Corp
In short: as §1

PLK2 = target: T5, PLK2 (Homo sapiens, UniProt Q9NYY3)
T5 construct: purchased Reaction Biology Corp
T5 sequence (Q9NYY3 whole entry): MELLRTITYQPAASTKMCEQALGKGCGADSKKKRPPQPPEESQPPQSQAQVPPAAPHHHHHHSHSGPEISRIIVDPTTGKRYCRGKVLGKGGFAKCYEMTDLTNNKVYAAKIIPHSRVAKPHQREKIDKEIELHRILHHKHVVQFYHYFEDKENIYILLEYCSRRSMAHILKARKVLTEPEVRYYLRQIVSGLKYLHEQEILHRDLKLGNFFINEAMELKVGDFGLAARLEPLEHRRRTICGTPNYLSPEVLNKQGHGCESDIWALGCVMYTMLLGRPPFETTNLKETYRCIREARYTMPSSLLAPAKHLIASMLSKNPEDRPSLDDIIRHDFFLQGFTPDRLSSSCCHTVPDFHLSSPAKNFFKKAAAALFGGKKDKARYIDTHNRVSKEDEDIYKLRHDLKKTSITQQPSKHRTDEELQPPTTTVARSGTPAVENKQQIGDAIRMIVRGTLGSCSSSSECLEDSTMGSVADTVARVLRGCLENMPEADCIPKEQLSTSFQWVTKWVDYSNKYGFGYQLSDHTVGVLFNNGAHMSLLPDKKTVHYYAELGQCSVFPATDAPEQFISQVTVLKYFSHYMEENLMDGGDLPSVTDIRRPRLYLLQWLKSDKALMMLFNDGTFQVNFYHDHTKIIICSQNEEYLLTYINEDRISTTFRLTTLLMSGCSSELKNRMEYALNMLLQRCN
In short: as §1

RIPK3 = target: T6, RIPK3 (Homo sapiens, UniProt Q9Y572)
T6 construct: purchased Reaction Biology Corp
T6 sequence (Q9Y572 whole entry): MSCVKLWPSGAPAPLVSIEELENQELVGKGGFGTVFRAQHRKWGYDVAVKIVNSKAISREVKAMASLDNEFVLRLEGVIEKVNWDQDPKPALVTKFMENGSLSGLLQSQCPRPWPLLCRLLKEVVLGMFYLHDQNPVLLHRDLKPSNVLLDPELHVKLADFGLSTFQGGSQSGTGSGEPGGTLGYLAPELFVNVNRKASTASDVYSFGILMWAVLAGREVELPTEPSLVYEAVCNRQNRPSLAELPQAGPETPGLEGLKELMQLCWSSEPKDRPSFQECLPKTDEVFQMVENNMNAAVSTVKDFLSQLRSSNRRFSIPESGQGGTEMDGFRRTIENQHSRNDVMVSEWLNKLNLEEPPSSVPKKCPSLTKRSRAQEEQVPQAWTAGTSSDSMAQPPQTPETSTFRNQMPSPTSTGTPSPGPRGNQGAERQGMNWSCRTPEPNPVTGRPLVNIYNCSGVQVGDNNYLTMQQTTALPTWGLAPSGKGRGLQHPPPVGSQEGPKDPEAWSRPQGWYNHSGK
In short: as §1

ULK3 = target: T7, ULK3 (Homo sapiens, UniProt Q6PHR2)
T7 construct: purchased Reaction Biology Corp
T7 sequence (Q6PHR2 1-472): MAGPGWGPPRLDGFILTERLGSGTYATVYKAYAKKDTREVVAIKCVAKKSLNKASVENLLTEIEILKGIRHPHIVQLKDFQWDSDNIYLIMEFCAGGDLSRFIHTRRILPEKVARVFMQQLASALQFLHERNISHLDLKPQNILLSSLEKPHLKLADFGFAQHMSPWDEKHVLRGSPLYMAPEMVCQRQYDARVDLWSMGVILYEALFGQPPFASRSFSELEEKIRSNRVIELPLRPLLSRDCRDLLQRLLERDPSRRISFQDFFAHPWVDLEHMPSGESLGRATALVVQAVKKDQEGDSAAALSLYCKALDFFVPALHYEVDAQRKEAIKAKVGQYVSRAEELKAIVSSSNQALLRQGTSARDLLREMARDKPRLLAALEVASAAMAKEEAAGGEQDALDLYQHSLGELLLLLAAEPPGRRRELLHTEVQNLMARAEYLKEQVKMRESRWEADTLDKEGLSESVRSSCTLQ
In short: as §1

[1] = read-out: % Enzyme Activity (relative to DMSO controls) Run 1
[2] = read-out: % Enzyme Activity (relative to DMSO controls) Run 2

Compound: C=CC(=O)Nc1cccc(Nc2nc(Nc3ccc(OCCOC)c(F)c3)ncc2F)c1 [Compound 2]
- inhibition at 3 µM (DYRK1/DYRK1A): 12%
- remaining activity at 3 µM (DYRK1/DYRK1A; [1]): 87.7%
- remaining activity at 3 µM (DYRK1/DYRK1A; [2]): 88.4%
- inhibition at 3 µM (LATS2): 10.2%
- remaining activity at 3 µM (LATS2; [1]): 88.4%
- remaining activity at 3 µM (LATS2; [2]): 91.2%
- inhibition at 3 µM (PHKg2): -14.7%
- remaining activity at 3 µM (PHKg2; [1]): 118%
- remaining activity at 3 µM (PHKg2; [2]): 112%
- inhibition at 3 µM (PKCg): 16%
- remaining activity at 3 µM (PKCg; [1]): 83.9%
- remaining activity at 3 µM (PKCg; [2]): 84.2%
- inhibition at 3 µM (PLK2): 13.3%
- remaining activity at 3 µM (PLK2; [1]): 86.6%
- remaining activity at 3 µM (PLK2; [2]): 86.7%
- inhibition at 3 µM (RIPK3): -18.8%
- remaining activity at 3 µM (RIPK3; [1]): 117%
- remaining activity at 3 µM (RIPK3; [2]): 121%
- inhibition at 3 µM (ULK3): 21.7%
- remaining activity at 3 µM (ULK3; [1]): 79.6%
- remaining activity at 3 µM (ULK3; [2]): 77%
